In US20030032774A1, “Novel opioid peptides for the treatment of pain” (priority 1994, published 2003):
Square brackets hold non-standard residues; d marks the D form. Peptide text beside a SMILES is read from it. 2Nal = N[C@@H](Cc1ccc2ccccc2c1)C(=O)O; dNle = CCCC[C@@H](N)C(=O)O; dAbu = CC[C@@H](N)C(=O)O; Ac5c = NC1(C(=O)O)CCCC1; Aib = CC(C)(N)C(=O)O

Each compound was assayed on PBQ induced writhing in mice (assay: PBQ (phenylquinone)-induced writhing assay). Conditions: mouse s.c., 20 min post administration.
Format: in vivo, mouse
Procedure: The test was performed on CD #1 male mice weighing between 18 and 22 g. Mice were weighed, marked and then injected, by the intraperitoneal route, with 0.3 ml/20 g by weight of a solution of phenylquinone at 0.02%. The contortions which appeared during a 15 minute time period following the injection were counted. The phenylquinone was injected at time intervals of 5, 20 or 60 minutes after administration of the compound (or medium, or standard) by subcutaneous route. It was injected at time intervals of 60 minutes after the administration of the compound (or medium, or standard) by oral route;
The 0.02% phenylquinone solution was prepared as follows: 20 mg of phenylquinone was dissolved in 5 ml ethanol 90% (Sigma). The dissolved phenylquinone was slowly added to 95 ml of distilled water continuously shaken and preheated (not boiled). The phenylquinone solution was, at all times protected from light and a new solution was prepared every day for the test. Each group usually contained 10 mice. If an antagonist, such as naloxone, was used, it was administered 20 minutes before the compound (or the medium, or the standard) by the intraperitoneal route.
Writhing assays were performed on CD#1 male mice weighing between […]. Assays were carried out as described in Example 3 and results are summarized below in Table 2.

Row | Compound | ED50(PBQ)
1 | CCCC[C@@H](NC(=O)[C@@H](N)Cc1ccc(O)cc1)C(=O)N[C@@H](Cc1c[nH]c2ccccc12)C(=O)N[C@@H](Cc1ccc2ccccc2c1)C(N)=O [BCH2214, H-Tyr-D-Nle-Trp-2′-Nal-NH2] (H-Y[dNle]W[2Nal]-NH2) | 15 mg/kg
2 | CC[C@@H](NC(=O)[C@@H](N)Cc1ccc(O)cc1)C(=O)N[C@@H](Cc1ccccc1)C(=O)N[C@@H](Cc1ccccc1)C(N)=O [BCH2577, H-Tyr-D-Abu-Phe-Phe-NH2] (H-Y[dAbu]FF-NH2) | >10 mg/kg
3 | ∇CH2Tyr-D-Ala-Phe-Phe-NH2 [BCH2202] | >10 mg/kg
4 | CCCC[C@@H](NC(=O)[C@@H](N)Cc1ccc(O)cc1)C(=O)N[C@@H](Cc1c[nH]c2ccccc12)C(=O)N[C@@H](Cc1ccccc1)C(N)=O [BCH2212, H-Tyr-D-Nle-Trp-Phe-NH2] (H-Y[dNle]WF-NH2) | >10 mg/kg
5 | H-Tyr-∇Ala-Phe-Phe-NH2 [BCH1787] | 10 mg/kg
6 | C[C@H](O)[C@@H](NC(=O)[C@@H](N)Cc1ccc(O)cc1)C(=O)N[C@@H](Cc1ccccc1)C(=O)N[C@@H](Cc1ccccc1)C(N)=O [BCH2811, H-Tyr-D-Thr-Phe-Phe-NH2] (H-Y[dT]FF-NH2) | 12 mg/kg
7 | CCCC[C@@H](NC(=O)[C@@H](N)Cc1ccc(O)cc1)C(=O)N[C@@H](Cc1ccccc1)C(=O)N[C@@H](Cc1c[nH]c2ccccc12)C(N)=O [BCH2208, H-Tyr-D-Nle-Phe-Trp-NH2] (H-Y[dNle]FW-NH2) | >3 mg/kg
8 | C[C@@H](NC(=O)[C@@H](N)Cc1ccc(O)cc1)C(=O)N[C@@H](Cc1c[nH]c2ccccc12)C(=O)N[C@@H](Cc1ccc2ccccc2c1)C(N)=O [BCH2213, H-Tyr-D-Ala-Trp-2′-Nal-NH2] (H-Y[dA]W[2Nal]-NH2) | >5 mg/kg
9 | H-Tyr-Chl-Phe-Phe-NH2 [BCH2578] | >10 mg/kg
10 | CC[C@@H](C)[C@@H](NC(=O)[C@@H](N)Cc1ccc(O)cc1)C(=O)N[C@@H](Cc1ccccc1)C(=O)N[C@@H](Cc1ccccc1)C(N)=O [BCH2473, H-Tyr-D-Ile-Phe-Phe-NH2] (H-Y[dI]FF-NH2) | >10 mg/kg
11 | CCCC[C@@H](NC(=O)[C@@H](N)Cc1ccc(O)cc1)C(=O)N[C@@H](Cc1c[nH]c2ccccc12)C(=O)N[C@@H](Cc1c[nH]c2ccccc12)C(N)=O [BCH2217, H-Tyr-D-Nle-Trp-Trp-NH2] (H-Y[dNle]WW-NH2) | >5 mg/kg
12 | CC(C)(NC(=O)[C@@H](N)Cc1ccc(O)cc1)C(=O)N[C@@H](Cc1ccccc1)C(=O)N[C@@H](Cc1ccccc1)C(N)=O [BCH754, H-Tyr-Aib-Phe-Phe-NH2] (H-Y[Aib]FF-NH2) | >20 mg/kg
13 | CC(C)[C@@H](NC(=O)[C@@H](N)Cc1ccc(O)cc1)C(=O)N[C@@H](Cc1ccccc1)C(=O)N[C@@H](Cc1ccccc1)C(N)=O [BCH2464, H-Tyr-D-Val-Phe-Phe-NH2] (H-Y[dV]FF-NH2) | >10 mg/kg
14 | NC(=O)[C@H](Cc1ccccc1)NC(=O)[C@H](Cc1ccccc1)NC(=O)C1(NC(=O)[C@@H](N)Cc2ccc(O)cc2)CCCC1 [BCH2579, H-Tyr-Cle-Phe-Phe-NH2] (H-Y[Ac5c]FF-NH2) | >10 mg/kg
15 | CCCC[C@@H](NC(=O)[C@@H](N)Cc1ccc(O)cc1)C(=O)N[C@@H](Cc1ccccc1)C(=O)N[C@@H](Cc1ccc2ccccc2c1)C(N)=O [BCH2211, H-Tyr-D-Nle-Phe-2′-Nal-NH2] (H-Y[dNle]F[2Nal]-NH2) | >10 mg/kg
16 | CC(C)C[C@@H](NC(=O)[C@@H](N)Cc1ccc(O)cc1)C(=O)N[C@@H](Cc1ccccc1)C(=O)N[C@@H](Cc1ccccc1)C(N)=O [BCH2465, H-Tyr-D-Leu-Phe-Phe-NH2] (H-Y[dL]FF-NH2) | >10 mg/kg
